# Test results from ChEMBL document CHEMBL5329202, “New aryl-/heteroarylpiperazine derivatives of 1,7-dimethyl-8,9-diphenyl-4-azatricyclo[5.2.1.02,6]dec-8-ene-3,5,10-trione: Synthesis and preliminary studies of biological activities” (Bioorg Med Chem, 2023).
# Calls of active or inactive are those of the source. The rule behind the calls is not given here.
# Key:
# [1] = tested on: SW480; assay: Induction of apoptosis in human SW480 cells assessed as viable cells at IC50 incubated for 72 hrs by Annexin V-FITC/PI staining based flow cytometric analysis (reference value: 97.7 %); format: functional
# [2] = tested on: SW-620; assay: Induction of apoptosis in human SW620 cells assessed as late apoptotic cells at IC50 incubated for 72 hrs by Annexin V-FITC/PI staining based flow cytometric analysis (reference value: 1.2 %); format: functional
# [3] = tested on: HCT-116; assay: Induction of apoptosis in human HCT-116 cells assessed as increase in caspase-3/7 activity at IC50 incubated for 24 hrs by Glo assay relative to control; format: functional
# [4] = target: 5-hydroxytryptamine receptor 2A (Rattus norvegicus, UniProt P14842); assay: Displacement of [3H]ketanserin from Sprague-Dawley rat 5-HT2A receptor assessed as inhibition constant measured after 60 mins by competitive binding assay
# Chain of 5-hydroxytryptamine receptor 2A (P14842 whole entry): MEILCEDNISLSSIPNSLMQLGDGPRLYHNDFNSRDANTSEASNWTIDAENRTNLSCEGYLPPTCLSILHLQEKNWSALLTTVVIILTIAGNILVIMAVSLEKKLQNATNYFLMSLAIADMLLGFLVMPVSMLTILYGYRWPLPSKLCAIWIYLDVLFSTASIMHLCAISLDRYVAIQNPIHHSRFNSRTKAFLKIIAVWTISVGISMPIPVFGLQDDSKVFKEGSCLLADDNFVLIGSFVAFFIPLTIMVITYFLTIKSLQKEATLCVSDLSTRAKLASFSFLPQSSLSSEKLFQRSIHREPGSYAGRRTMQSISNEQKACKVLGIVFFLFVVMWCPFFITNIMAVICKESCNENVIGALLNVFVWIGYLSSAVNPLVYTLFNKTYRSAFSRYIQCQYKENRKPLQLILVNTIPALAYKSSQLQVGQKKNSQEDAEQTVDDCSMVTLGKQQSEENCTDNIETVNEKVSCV
# [5] = tested on: K562; assay: Antiproliferative activity against human K562 cells assessed as reduction in cell viability at IC50 measured after 72 hrs by trypan blue dye based assay relative to control; format: functional
# [6] = tested on: SW-620; assay: Antiproliferative activity against human SW620 cells assessed as reduction in cell viability at IC50 measured after 72 hrs by trypan blue dye based assay relative to control; format: functional
# [7] = tested on: SW-620; assay: Induction of apoptosis in human SW620 cells assessed as necrotic cells at IC50 incubated for 72 hrs by Annexin V-FITC/PI staining based flow cytometric analysis (reference value: 0.7 %); format: functional
# [8] = tested on: SW-620; assay: Antiproliferative activity against human SW620 cells assessed as decrease in IL-6 level at IC50 measured after 72 hrs by ELISA assay relative to control; format: functional; design: scale not given: the % may be the effect or the level left
# [9] = tested on: SW-620; assay: Induction of apoptosis in human SW620 cells assessed as early apoptotic cells at IC50 incubated for 72 hrs by Annexin V-FITC/PI staining based flow cytometric analysis (reference value: 5.2 %); format: functional
# [10] = tested on: SW480; assay: Induction of apoptosis in human SW480 cells assessed as early apoptotic cells at IC50 incubated for 72 hrs by Annexin V-FITC/PI staining based flow cytometric analysis (reference value: […]); format: functional
# [11] = tested on: SW480; assay: Induction of apoptosis in human SW480 cells assessed as necrotic cells at IC50 incubated for 72 hrs by Annexin V-FITC/PI staining based flow cytometric analysis (reference value: 0.1 %); format: functional
# [12] = tested on: SW480; assay: Induction of apoptosis in human SW480 cells assessed as late apoptotic cells at IC50 incubated for 72 hrs by Annexin V-FITC/PI staining based flow cytometric analysis (reference value: 0.8 %); format: functional
# [13] = tested on: SW-620; assay: Cytotoxicity against human SW620 cells assessed as cell growth inhibition measured after 72 hrs by MTT assay; format: functional, cell-based; conditions: SW-620, 72 h
# [14] = tested on: HaCaT; assay: Induction of apoptosis in human HaCaT cells at IC50 incubated for 72 hrs by Annexin V-FITC/PI staining based flow cytometric analysis; format: functional, cell-based
# [15] = tested on: SW-620; assay: Induction of apoptosis in human SW620 cells assessed as viable cells at IC50 incubated for 72 hrs by Annexin V-FITC/PI staining based flow cytometric analysis (reference value: 92.9 %); format: functional
# [16] = tested on: HCT-116; assay: Antiproliferative activity against human HCT-116 cells assessed as decrease in IL-6 level at IC50 measured after 72 hrs by ELISA assay relative to control; format: functional; design: scale not given: the % may be the effect or the level left
# [17] = tested on: SW480; assay: Antiproliferative activity against human SW480 cells assessed as reduction in cell viability at IC50 measured after 72 hrs by trypan blue dye based assay relative to control; format: functional
# [18] = tested on: HMEC-1; assay: Induction of apoptosis in human HMEC-1 cells assessed as necrotic cells at IC50 incubated for 72 hrs by Annexin V-FITC/PI staining based flow cytometric analysis (reference value: 2.4 %); format: functional
# [19] = tested on: HMEC-1; assay: Antiproliferative activity against human HMEC-1 cells assessed as reduction in cell viability at IC50 measured after 72 hrs by trypan blue dye based assay relative to control; format: toxicity; conditions: hmec-1, 72 h
# [20] = tested on: HepG2; assay: Cytotoxicity against human HepG2 cells assessed as cell growth inhibition measured after 72 hrs by MTT assay; format: functional, cell-based; conditions: HepG2, 72 h
# [21] = tested on: SW480; assay: Antiproliferative activity against human SW480 cells assessed as reduction in cell number at IC50 measured after 72 hrs by trypan blue dye based assay relative to control; format: functional; design: scale not given: the % may be the effect or the level left
# [22] = Selectivity index, ratio of IC50 for cytotoxicity against human HMEC-1 cells to IC50 for cytotoxicity against human K562 cells; format: toxicity, cell-based; conditions: HMEC-1 cells and K562 cells, read-out: Ratio IC50
# [23] = Selectivity index, ratio of IC50 for cytotoxicity against human HMEC-1 cells to IC50 for cytotoxicity against human SW480 cells
# [24] = tested on: HCT-116; assay: Induction of apoptosis in human HCT-116 cells assessed as viable cells at IC50 incubated for 72 hrs by Annexin V-FITC/PI staining based flow cytometric analysis (reference value: 90.5 %); format: functional
# [25] = tested on: HCT-116; assay: Cytotoxicity against human HCT-116 cells assessed as cell growth inhibition measured after 72 hrs by MTT assay; format: functional, cell-based; conditions: HCT-116, 72 h
# [26] = tested on: SW-620; assay: Antiproliferative activity against human SW620 cells assessed as reduction in cell number at IC50 measured after 72 hrs by trypan blue dye based assay relative to control; format: functional; design: scale not given: the % may be the effect or the level left
# [27] = tested on: HCT-116; assay: Induction of apoptosis in human HCT-116 cells assessed as increase in caspase-3/7 activity at IC50 incubated for 24 hrs by Glo assay; format: functional, cell-based
# [28] = tested on: PC-3; assay: Antiproliferative activity against human PC-3 cells assessed as reduction in cell viability at IC50 measured after 72 hrs by trypan blue dye based assay relative to control; format: functional
# [29] = tested on: PC-3; assay: Induction of apoptosis in human PC-3 cells assessed as necrotic cells at IC50 incubated for 72 hrs by Annexin V-FITC/PI staining based flow cytometric analysis (reference value: 3.6 %); format: functional
# [30] = tested on: PC-3; assay: Induction of apoptosis in human PC-3 cells assessed as viable cells at IC50 incubated for 72 hrs by Annexin V-FITC/PI staining based flow cytometric analysis (reference value: 94.4 %); format: functional
# [31] = tested on: PC-3; assay: Induction of apoptosis in human PC-3 cells assessed as late apoptotic cells at IC50 incubated for 72 hrs by Annexin V-FITC/PI staining based flow cytometric analysis (reference value: 1.7 %); format: functional
# [32] = tested on: PC-3; assay: Induction of apoptosis in human PC-3 cells assessed as increase in caspase-3/7 activity at IC50 incubated for 24 hrs by Glo assay relative to control; format: functional
# [33] = tested on: SW480; assay: Antiproliferative activity against human SW480 cells assessed as decrease in IL-6 level at IC50 measured after 72 hrs by ELISA assay relative to control; format: functional; design: scale not given: the % may be the effect or the level left
# [34] = tested on: PC-3; assay: Induction of apoptosis in human PC-3 cells assessed as early apoptotic cells at IC50 incubated for 72 hrs by Annexin V-FITC/PI staining based flow cytometric analysis (reference value: 0.3 %); format: functional
# [35] = tested on: PC-3; assay: Antiproliferative activity against human PC-3 cells assessed as reduction in cell number at IC50 measured after 72 hrs by trypan blue dye based assay relative to control; format: functional; design: scale not given: the % may be the effect or the level left
# [36] = tested on: HMEC-1; assay: Induction of apoptosis in human HMEC-1 cells assessed as increase in caspase-3/7 activity at IC50 incubated for 24 hrs by Glo assay relative to control; format: functional
# [37] = tested on: HaCaT; assay: Induction of apoptosis in human HaCaT cells assessed as late apoptotic cells at IC50 incubated for 72 hrs by Annexin V-FITC/PI staining based flow cytometric analysis relative to control; format: functional
Structure (SMILES),Activity [1] [%],Activity [3] [%],Ki [4] [µM],Activity [5] [%],Activity [10] [%],Activity [11] [%],Activity [12] [%],IC50 [13] [µM],Activity [14],Activity [16] [%],Activity [17] [%],Activity [18] [%],Activity [19],IC50 [20] [µM],Activity [21] [%],selectivity ratio [22],Ratio IC50 [23],Activity [24] [%],IC50 [25] [µM],Activity [28] [%],also measured
COc1ccccc1N1CCN(CCCCN2C(=O)C3C(C2=O)C2(C)C(=O)C3(C)C(c3ccccc3)=C2c2ccccc2)CC1 (stereo unspecified),87.1,53,0.2,44,11.1,0.1,1.7,4.8,inactive,53,22,1.7,Non-Toxic,15.7,40,4.47,4.08,79.2,8.89,,Activity [2]: 1.8%; Activity [6]: 27%; Activity [7]: 1.4%; Activity [8]: 31%; Activity [9]: 7.6%; Activity [15]: 89.2%; Activity [26]: 27%
CC12C(=O)C(C)(C(c3ccccc3)=C1c1ccccc1)C1C(=O)N(CCCCN3CCN(c4ccccn4)CC3)C(=O)C12 (stereo unspecified),,,4.7,37,,,,16,inactive,,,1.6,Non-Toxic,14.6,,4.13,3.02,85.5,8.38,,Activity [27]: inactive
CC12C(=O)C(C)(C(c3ccccc3)=C1c1ccccc1)C1C(=O)N(CCCCN3CCN(c4ccccc4Cl)CC3)C(=O)C12 (stereo unspecified),89,137,0.1,30,10,0.1,1,6.2,inactive,53,21,5.1,Non-Toxic,12.9,38,5.15,3.9,58,3.58,26,Activity [2]: 2.2%; Activity [29]: 3.1%; Activity [30]: 60.1%; Activity [6]: 23%; Activity [31]: 32.6%; Activity [7]: 1.8%; Activity [32]: 216%; Activity [8]: 24%; Activity [9]: 6.1%; Activity [33]: 48%; Activity [34]: 4.2%; Activity [35]: 43%; Activity [15]: 89.9%; Activity [26]: 27%
CC12C(=O)C(C)(C(c3ccccc3)=C1c1ccccc1)C1C(=O)N(CCCCN3CCN(c4ccccc4F)CC3)C(=O)C12 (stereo unspecified),87.8,137,0.3,30,10.8,0.1,1.4,22.4,,53,21,5,Non-Toxic,26.8,46,3.13,2.28,74.9,4.48,26,Activity [29]: 2.1%; Activity [30]: 75.6%; Activity [31]: 16.2%; Activity [32]: 127%; Activity [36]: 13%; Activity [34]: 6.3%; Activity [35]: 27%; Activity [37]: 12.3%
CC12C(=O)C(C)(C(c3ccccc3)=C1c1ccccc1)C1C(=O)N(CCCCN3CCN(c4cccc(Cl)c4)CC3)C(=O)C12 (stereo unspecified),81.9,,25.3,30,16.8,0.1,1.2,15.9,inactive,,21,2,Non-Toxic,14.1,39,5.01,2.64,81.5,6.19,26,Activity [29]: 2.1%; Activity [30]: 78.5%; Activity [31]: 16.2%; Activity [27]: inactive; Activity [32]: 70%; Activity [34]: 3.3%; Activity [35]: 29%
CC12C(=O)C(C)(C(c3ccccc3)=C1c1ccccc1)C1C(=O)N(CCCCN3CCN(c4ncccn4)CC3)C(=O)C12 (stereo unspecified),,137,,28,,,,13.5,inactive,53,,1.3,Non-Toxic,16.7,,3.78,1.93,37.4,4.63,,
